Data reported in patent US8114862B2, “TGR5 modulators and methods of use thereof” (Intercept Pharmaceuticals, Inc., priority 2008, dated 2012).
Several values for one entry are separate records, joined by “and”; a condition that tells them apart may be missing. Equal values may be shown once.

Key:
intestinal bacteria = assay: Metabolic stability in human stool culture (7α-dehydroxylation); assay type: in vitro ADME
Procedure: Homogenized fresh human stools (500 mg) were transferred into sterile vials to which 5 mL of sterilized chopped meat-glucose medium (Scott Lab., Fiskville, R.I.) was added. BA was then added at a final concentration of 0.05 mM. […] The samples were centrifuged at 3500 rpm for 10 min; from the supernatant the BA were isolated by C-18 solid-phase extraction and analyzed by TLC and HPLC-ES-MS/MS.
Thin-layer chromatography (TLC), utilizing silica gel 0.25 mm thickness plates (Merck, Darmstat, Germany), was employed as the first screening test. The solvent system used for the separation of conjugated BA was composed of propionic acid/isoamyl acetate/water/N-propanol (3:4:1:2, v/v/v/v; solvent I), and that of the unconjugated BA was acetic acid/carbon tetrachloride/isopropyl ether/isoamyl acetate/water/N-propanol/benzene (1:4:6:8:2:2, v/v/v/v/v/v; solvent II).

VDR = target: T1, VDR (Homo sapiens, UniProt P11473); assay: VDR coactivator recruitment assay
T1 sequence (P11473 127-423 limits assumed): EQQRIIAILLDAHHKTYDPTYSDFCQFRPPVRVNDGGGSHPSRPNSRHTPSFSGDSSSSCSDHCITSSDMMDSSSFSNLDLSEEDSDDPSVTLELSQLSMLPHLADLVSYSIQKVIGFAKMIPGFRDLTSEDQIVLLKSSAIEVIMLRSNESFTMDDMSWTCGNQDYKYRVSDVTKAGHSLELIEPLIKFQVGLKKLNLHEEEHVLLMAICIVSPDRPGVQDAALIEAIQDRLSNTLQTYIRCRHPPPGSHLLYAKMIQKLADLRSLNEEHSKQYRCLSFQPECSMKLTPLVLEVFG
Procedure: Lanthascreen assay (Invitrogen) was used for nulear receptor selectivity assay. The kit uses a terbium-labeled anti-GST antibody, a fluorescein-labeled coactivator peptide, and a NR ligand-binding domain that is tagged with glutathione-S-transferase (GST) in a homogenous mix-and-read assay format. […] Following 1 hour incubation in the dark, TR-FRET measurements were made in the Envision. […] The data was analyzed using GraphPad Prism using the sigmoidal curve equation with variable slope to obtain EC50 values.

TGR5+/+ and TGR5-/- mice [1] = assay: OGTT in HF-fed TGR5+/+ and TGR5-/- mice before and after treatment; assay type: in vivo, mouse; settings: for body weight after treatment: HF diet, 30 mg/kg/d 4 weeks
Procedure: […]. […] […]; not statistically different). […]; not statistically different).
(§1) Animals were housed and bred according to standardized procedures (Argmann and Auwerx, 2006b). Age-matched male mice were used for all experiments. Genetically engineered mouse models (GEMMs), i.e., TGR5-Tg and TGR5^−/− mice, were generated as described in the Supplemental Data. […]; Research Diets) for at least 8 weeks, as mentioned in the text and figure legends. […] Mouse phenotyping experiments were performed according to EMPRESS protocols (see, for example, Empress (European Mouse Phenotyping Resource of Standardised Screening) website) and were aimed to assess food and water intake, body composition (Argmann et al., 2006a, Curr. Protoc. Mol. Biol. Chapter 29, Unit 29A, 23), energy expenditure (Argmann et al., 2006a, Curr. Protoc. Mol. Biol. Chapter 29, Unit 29A, 23), glucose and lipid homeostasis (Argmann et al., 2006b, Curr. Protoc. Mol. Biol. Chapter 29, Unit 29A, 22); Heikkinen et al., 2007, Curr. Protoc. Mol. Chapter. 29, Unit 29B, 23; Mataki et al., 2007, Mol. Cell. Biol. 27, 8330), and plasma biochemistry (Argmann and Auwerx, 2006a, Curr. Protoc. Mol. Biol. Chapter 29, Unit 29A, 22). Tissues and blood were collected and processed for histopathology, blood chemistry, and gene expression according to standardized procedures (Argmann and Auwerx, 2006a; Feige et al., 2008b; Mark et al., 2007; Watanabe et al., 2006). Hyperinsulinemic euglycemic clamp studies were performed as described (Feige et al., 2008b), with minor modifications including a change in the initial insulin bolus (30 mU/kg) and insulin infusion rate (10 mU/min/kg). Plasma GLP-1 levels were measured by ELISA (Millipore) on blood collected by retro-orbital puncture. […].

bovine serum albumin = bovine serum albumin (Bos taurus, UniProt P02769); assay: Albumin binding by equilibrium dialysis; assay type: in vitro ADME; settings: 100 μM BA in 5% bovine serum albumin-saline, pH 7.2
Procedure: The extent of albumin binding was evaluated by equilibrium dialysis at a fixed BA-albumin ratio. BA was dissolved at a concentration of 100 μM in 5% bovine serum albumin-saline solution (pH 7.2) and left to stand for 24 h at 25° C. Two milliliters of this solution was dialyzed in cellulose sacs having a molecular weight cut-off of 12-14,000 against 25 ml of saline solution. The system was equilibrated by mechanical gently shaking for 72 h at 25° C. BA concentrations of the dialyzed solution (corresponding to the free unbound fraction) and of the starting solution were determined with HPLC-ESI-MS/MS in the same conditions of the previous analysis.
The percent of albumin binding was calculate from the initial BA concentration and from the unbound concentration in the dialyzed fraction.

[2] = Bile flow in bile fistula rat after femoral infusion (Example 22); assay type: in vivo
[3] = Critical micellar concentration by surface tension; assay type: physicochemical; settings: […] NaCl water solution
Procedure: The critical micellar concentration (CMC) was determined by surface tension (ST) measurements using a maximum bubble-pressure method which give surface tension values […] by potential impurities like static methods are. The tensiometer was a […] Research Corp., Milwaukee, Wis.) equipped with two glass probes of 0.5 and 4.0 mm diameters connected to a source of nitrogen. […] The surface tension values were plotted against the logarithm of the bile salt concentration; the regression lines corresponding to the two parts of the curve (monomeric and micellar phases) were calculated using the method of least squares, and the intersection of the lines was taken as the CMC value. From the ST vs concentration curves the value of the surface tension at the CMC (equilibrium between monomers and multimers species) was also calculated giving information about the detergency power which is related to the size of the micelles with associate surface tension lowering capacity. The CMC was evaluated by surface tension measurements in non equilibrium conditions i.e. in conditions that impurities slightly affect the surface tension results (FIG. 10).

[4] = Octanol/water partition coefficient (shake-flask); assay type: physicochemical; settings: pH 8
Procedure: Since the sulphate and sulphonated analogues are always ionised at all pH values the octanol/water partition coefficient was measured for all molecules in ionized form and therefore the carboxy analogues were studied at high pH. 1-Octanol/water partition coefficient (log P) was evaluated using a conventional shake-flask procedure. […] The aqueous buffer was previously pre-saturated with 1-octanol, 5 ml of 1-octanol pre-saturated with water was then added and the samples were left to equilibrate for 2 weeks under continuous stirring at room temperature After centrifugation the two phases were carefully separated. […] The mass spectrometry acquisition was performed in the multiple reaction monitoring mode using the ESI source in negative ionization.

TGR5+/+ and TGR5-/- mice [5] = assay: Plasma GLP-1 after oral glucose challenge in TGR5+/+ and TGR5-/- mice; assay type: in vivo, mouse; settings: for GLP-1 release after a glucose challenge: TGR5+/+ mice
Procedure: as §1
To further establish a role of TGR5 signaling in the maintenance of glucose homeostasis, we assessed the glucose tolerance of germline TGR5-deficient mice (TGR5^−/−), generated by breeding mice in which the TGR5 allele was floxed with CMV-Cre transgenic mice. […].

Sequence of bovine serum albumin (P02769 25-607): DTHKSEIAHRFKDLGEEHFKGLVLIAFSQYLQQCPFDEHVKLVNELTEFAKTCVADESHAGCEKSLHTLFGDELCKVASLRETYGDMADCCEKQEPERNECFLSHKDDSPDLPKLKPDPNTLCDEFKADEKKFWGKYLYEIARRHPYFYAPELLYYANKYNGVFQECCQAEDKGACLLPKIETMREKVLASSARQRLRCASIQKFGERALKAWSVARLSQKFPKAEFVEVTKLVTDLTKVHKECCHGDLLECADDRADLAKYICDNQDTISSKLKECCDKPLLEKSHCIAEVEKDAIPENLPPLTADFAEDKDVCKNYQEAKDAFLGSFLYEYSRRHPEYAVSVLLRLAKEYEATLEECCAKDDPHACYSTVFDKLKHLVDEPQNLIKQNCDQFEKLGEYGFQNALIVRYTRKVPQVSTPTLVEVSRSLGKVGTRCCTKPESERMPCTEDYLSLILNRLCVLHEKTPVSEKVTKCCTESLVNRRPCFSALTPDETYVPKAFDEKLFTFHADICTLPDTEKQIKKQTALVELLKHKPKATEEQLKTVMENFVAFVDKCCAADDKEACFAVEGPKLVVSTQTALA

## CC[C@H]1[C@@H](O)[C@@H]2[C@H](C[C@H](O)[C@]3(C)[C@@H]([C@H](C)C[C@H](C)C(=O)O)CC[C@@H]23)[C@@]2(C)CC[C@@H](O)C[C@@H]12 [Ih3e, 6α-ethyl-(23S)-methyl-3α,7α,12α trihydroxy-5β-cholan-24-oic acid]
Intestinal bacteria
  7-dehydroxylation and intermediate formation of a 7-oxo derivative: practically abolished
  side chain stability to intestinal bacteria enzymatic activities: not modified
Intestinal bacteria; after 24 hour incubation
  compound recovered unmodified: more than 85%
Intestinal bacteria; human, 12 h, 0.05 mM
  compound unmodified: more than 95%
VDR
  VDR Activation EC50: No activity
TGR5+/+ and TGR5-/- mice [1]; TGR5+/+ fed a HF diet
  insulin secretion during oral glucose challenge: normalization of insulin secretion
TGR5+/+ and TGR5-/- mice [1]; TGR5+/+ fed a HF diet, 4 weeks 30 mkd
  glucose tolerance: significantly improved glucose tolerance
TGR5+/+ and TGR5-/- mice [1]; TGR5+/+ mice
  body weight after treatment: 43.50 ± 3.47 g
TGR5+/+ and TGR5-/- mice [1]; TGR5-/- mice
  effects on glucose tolerance and insulin secretion: blunted
  body weight after treatment: 52.30 ± 2.72 g
Bovine serum albumin
  Albumin Binding: 62%
[2]; iv infusion
  duration of increased bile flow after the end of the infusion period: at least 2 hours
[2]; iv infusion 1 μmol/min/kg for 1 h
  bile flow rate: significantly increased the bile flow rate
[3]
  CMC […] Na+: 1.4 mM
  STCMC (surface tension at CMC): 50.1 Dyne/cm
[4]
  LogPA- (1-octanol-water partition coefficient, ionized species): 1.4 and 1.44
TGR5+/+ and TGR5-/- mice [5]; DPP4 inhibitor sitagliptin coadministered
  GLP-1 release after a glucose challenge: markedly more pronounced
TGR5+/+ and TGR5-/- mice [5]; preadministration 30 mg/kg oral
  GLP-1 release after a glucose challenge: moderately increased GLP-1 release
TGR5+/+ and TGR5-/- mice [5]; TGR5-/- mice
  effects on plasma GLP-1 levels: blunted
